Assay results: ChEMBL document CHEMBL1201862, “PubChem BioAssay data set” (2004)
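How tested: cells in 96-well plates exposed to compound for 48 hours at five concentrations. The concentration for 50% growth inhibition is given as GI50.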 Calls of active or inactive are those of the source. Rule as the data show it: active = GI50 up to about 1.1 µM and inactive = higher.

How the values were obtained:
Experiment in all cases: DTP human tumour cell line panel, 48 h
A498 = system: A498
A549 = system: A549
CCRF-CEM = system: CCRF-CEM
COLO 205 = system: COLO 205
EKVX = system: EKVX
HOP-62 = system: HOP-62
Hs-578T = system: Hs-578T
M14 = system: M14
NCI-H226 = system: NCI-H226
NCI-H460 = system: NCI-H460
OVCAR-5 = system: OVCAR-5
RPMI-8226 = system: RPMI-8226
SK-MEL-28 = system: SK-MEL-28
SK-OV-3 = system: SK-OV-3
SNB-75 = system: SNB-75
SR = system: SR
SW-620 = system: SW-620
U-251 = system: U-251
UO-31 = system: UO-31
XF498 = system: XF498

Row | SMILES | GI50 (A498) | GI50 (A549) | GI50 (CCRF-CEM) | GI50 (COLO 205) | GI50 (EKVX) | GI50 (HOP-62) | GI50 (Hs-578T) | GI50 (M14) | GI50 (NCI-H226) | GI50 (NCI-H460) | GI50 (OVCAR-5) | GI50 (RPMI-8226) | GI50 (SK-MEL-28) | GI50 (SK-OV-3) | GI50 (SNB-75) | GI50 (SR) | GI50 (SW-620) | GI50 (U-251) | GI50 (UO-31) | GI50 (XF498)
1 | Cc1cc2c(O)nc(N)nc2nc1C | > 100 µM (inactive) | > 100 µM (inactive) | > 100 µM (inactive) | > 100 µM (inactive) | > 100 µM (inactive) | > 100 µM (inactive) | > 100 µM (inactive) | > 100 µM (inactive) | > 100 µM (inactive) | > 100 µM (inactive) | > 100 µM (inactive) | > 100 µM (inactive) | > 100 µM (inactive) | > 100 µM (inactive) | > 100 µM (inactive) | > 100 µM (inactive) | > 100 µM (inactive) | > 100 µM (inactive) | > 100 µM (inactive) | –
2 | CN(CCc1ccccn1)c1nc(=[N+](C)C)ss1 | > 100 µM (inactive) | 35.3 µM (inactive) | 81.3 µM (inactive) | > 100 µM (inactive) | > 100 µM (inactive) | > 100 µM (inactive) | – | > 100 µM (inactive) | – | 46.3 µM (inactive) | > 100 µM (inactive) | > 100 µM (inactive) | > 100 µM (inactive) | > 100 µM (inactive) | > 100 µM (inactive) | – | > 100 µM (inactive) | > 100 µM (inactive) | > 100 µM (inactive) | > 100 µM (inactive)
3 | NC1CCCCC1.O=C(O)C(CP(=O)(O)O)=C(Cl)Cl | – | > 100 µM (inactive) | > 100 µM (inactive) | > 100 µM (inactive) | > 100 µM (inactive) | > 100 µM (inactive) | – | – | > 100 µM (inactive) | > 100 µM (inactive) | > 100 µM (inactive) | > 100 µM (inactive) | > 100 µM (inactive) | > 100 µM (inactive) | > 100 µM (inactive) | > 100 µM (inactive) | > 100 µM (inactive) | > 100 µM (inactive) | > 100 µM (inactive) | > 100 µM (inactive)
4 | COC(=O)/C(C#N)=C1\CCC(O)N1 (centres undefined) | – | > 100 µM (inactive) | > 100 µM (inactive) | > 100 µM (inactive) | > 100 µM (inactive) | > 100 µM (inactive) | – | > 100 µM (inactive) | > 100 µM (inactive) | > 100 µM (inactive) | > 100 µM (inactive) | > 100 µM (inactive) | > 100 µM (inactive) | > 100 µM (inactive) | > 100 µM (inactive) | > 100 µM (inactive) | > 100 µM (inactive) | > 100 µM (inactive) | > 100 µM (inactive) | > 100 µM (inactive)
5 | CC(C)C(=O)/C=C/c1ccc(Cl)cc1Cl | 17.9 µM (inactive) | 14.8 µM (inactive) | 5.09 µM (inactive) | 18.5 µM (inactive) | 16.8 µM (inactive) | 18.5 µM (inactive) | 3.51 µM (inactive) | 8.28 µM (inactive) | 13.2 µM (inactive) | 11.3 µM (inactive) | 16.9 µM (inactive) | > 100 µM (inactive) | 16.5 µM (inactive) | 19.6 µM (inactive) | 14.4 µM (inactive) | 6.61 µM (inactive) | 3.1 µM (inactive) | 12.6 µM (inactive) | 11.4 µM (inactive) | –
6 | CCCC(=O)C(CC)/C(CCC(=O)N(Cc1ccccc1)Cc1ccccc1)=N/NC(=O)C[N+](C)(C)C (centres undefined) | > 100 µM (inactive) | > 100 µM (inactive) | > 100 µM (inactive) | > 100 µM (inactive) | > 100 µM (inactive) | > 100 µM (inactive) | – | > 100 µM (inactive) | > 100 µM (inactive) | > 100 µM (inactive) | > 100 µM (inactive) | – | > 100 µM (inactive) | > 100 µM (inactive) | > 100 µM (inactive) | > 100 µM (inactive) | > 100 µM (inactive) | > 100 µM (inactive) | > 100 µM (inactive) | 65.2 µM (inactive)
7 | C/C=C(/C)C(=O)O[C@H]1[C@H](O)CC(c2ccc3c(c2O)C(=O)C2=C(O)C4(OC)C(=O)C(C(N)=O)=C(O)[C@H](CC(=O)c5ccccc5O)C4CC2[C@@]3(C)OC)O[C@@H]1C (some centres undefined) | 0.0422 µM (active) | 0.00311 µM (active) | 0.0281 µM (active) | 0.0104 µM (active) | 0.0396 µM (active) | 0.00331 µM (active) | 0.0041 µM (active) | 0.0213 µM (active) | 0.0202 µM (active) | 0.00178 µM (active) | 0.0546 µM (active) | 0.00785 µM (active) | 0.653 µM (active) | 0.00446 µM (active) | 0.0198 µM (active) | 0.00426 µM (active) | 0.00408 µM (active) | 0.00256 µM (active) | 0.041 µM (active) | –
8 | N=c1c2ccccc2sc2nc3ccccc3n12 | > 100 µM (inactive) | > 100 µM (inactive) | > 100 µM (inactive) | > 100 µM (inactive) | 86.1 µM (inactive) | > 100 µM (inactive) | – | – | 57.9 µM (inactive) | > 100 µM (inactive) | > 100 µM (inactive) | – | > 100 µM (inactive) | 72.3 µM (inactive) | – | > 100 µM (inactive) | > 100 µM (inactive) | > 100 µM (inactive) | > 100 µM (inactive) | 85.1 µM (inactive)
9 | CCOC(=O)C(=O)/C(=C/NC(=S)c1ccncc1)C(=O)OCC | > 100 µM (inactive) | > 100 µM (inactive) | > 100 µM (inactive) | > 100 µM (inactive) | > 100 µM (inactive) | > 100 µM (inactive) | > 100 µM (inactive) | > 100 µM (inactive) | > 100 µM (inactive) | > 100 µM (inactive) | > 100 µM (inactive) | > 100 µM (inactive) | > 100 µM (inactive) | > 100 µM (inactive) | > 100 µM (inactive) | > 100 µM (inactive) | > 100 µM (inactive) | > 100 µM (inactive) | 5.71 µM (inactive) | –
10 | Nc1ccc2n[se]nc2c1 | > 100 µM (inactive) | > 100 µM (inactive) | > 100 µM (inactive) | – | > 100 µM (inactive) | > 100 µM (inactive) | – | > 100 µM (inactive) | – | > 100 µM (inactive) | > 100 µM (inactive) | > 100 µM (inactive) | > 100 µM (inactive) | > 100 µM (inactive) | > 100 µM (inactive) | > 100 µM (inactive) | > 100 µM (inactive) | > 100 µM (inactive) | > 100 µM (inactive) | > 100 µM (inactive)
11 | CC(NC(=O)/C(=C/c1ccccc1)NC(=O)c1ccccc1)C(=O)O (centres undefined) | > 100 µM (inactive) | > 100 µM (inactive) | > 100 µM (inactive) | > 100 µM (inactive) | 40.4 µM (inactive) | > 100 µM (inactive) | 88.3 µM (inactive) | > 100 µM (inactive) | 26.1 µM (inactive) | > 100 µM (inactive) | > 100 µM (inactive) | > 100 µM (inactive) | > 100 µM (inactive) | 87.3 µM (inactive) | 24.1 µM (inactive) | 37.6 µM (inactive) | > 100 µM (inactive) | 34 µM (inactive) | 91.4 µM (inactive) | –
12 | OCCSCC/C(=N\N=C(/CCSCCO)c1ccccc1)c1ccccc1 | – | > 100 µM (inactive) | 44.9 µM (inactive) | > 100 µM (inactive) | > 100 µM (inactive) | > 100 µM (inactive) | – | > 100 µM (inactive) | > 100 µM (inactive) | 69.5 µM (inactive) | > 100 µM (inactive) | 39.4 µM (inactive) | > 100 µM (inactive) | > 100 µM (inactive) | – | – | > 100 µM (inactive) | > 100 µM (inactive) | 91.4 µM (inactive) | 69.2 µM (inactive)
13 | CC(C)C(=O)N[C@@H](C)C(=O)N(Cc1ccc2ccccc2c1)N=O | 58.2 µM (inactive) | 82.4 µM (inactive) | 61.4 µM (inactive) | > 100 µM (inactive) | > 100 µM (inactive) | > 100 µM (inactive) | – | 84.1 µM (inactive) | – | 82 µM (inactive) | 48.8 µM (inactive) | 43.6 µM (inactive) | > 100 µM (inactive) | > 100 µM (inactive) | > 100 µM (inactive) | – | 55.5 µM (inactive) | 72.4 µM (inactive) | 30 µM (inactive) | > 100 µM (inactive)
14 | COc1ccc(C(=O)Nc2ccccc2C#N)cc1 | > 100 µM (inactive) | > 100 µM (inactive) | > 100 µM (inactive) | > 100 µM (inactive) | > 100 µM (inactive) | > 100 µM (inactive) | – | – | – | > 100 µM (inactive) | > 100 µM (inactive) | > 100 µM (inactive) | > 100 µM (inactive) | – | 51.1 µM (inactive) | > 100 µM (inactive) | > 100 µM (inactive) | > 100 µM (inactive) | – | > 100 µM (inactive)
15 | COC1[C@H](NC(=O)OC(C)(C)C)C(=O)N1Cc1ccccc1 (some centres undefined) | 9.53 µM (inactive) | > 100 µM (inactive) | > 100 µM (inactive) | > 100 µM (inactive) | > 100 µM (inactive) | > 100 µM (inactive) | – | > 100 µM (inactive) | > 100 µM (inactive) | > 100 µM (inactive) | > 100 µM (inactive) | > 100 µM (inactive) | > 100 µM (inactive) | > 100 µM (inactive) | > 100 µM (inactive) | – | > 100 µM (inactive) | > 100 µM (inactive) | > 100 µM (inactive) | > 100 µM (inactive)
